From ChEMBL document CHEMBL5236637, “Expanding the Chemical Space of Drug-like Passerini Compounds: Can α-Acyloxy Carboxamides Be Considered Hard Drugs?” (ACS Med Chem Lett, 2022)

What was measured:
[1] = Hydrolytic stability in mouse liver microsomes assessed as esterase-mediated compound hydrolysis by measuring residual substrate activity incubated for 30 mins by LC-HRMS analysis; format: ADME, Microsome; settings: for Stability: microsomes, 0.5 h
Pseudomonas aeruginosa = experiment: Antibacterial activity against Pseudomonas aeruginosa ATCC 9027 assessed inhibition zone at 1 mg/ml preincubated at room temperature for 1 hr and measured after 24 hrs by agar well-diffusion method; format: functional; settings: time 25.0 hrs

Row | Compound | Stability [1] | further results
1 | COC(=O)c1c(C)cccc1C | Stable | 
2 | CC(C)(C)NC(=O)COC(=O)c1ccccc1-c1ccccc1 |  | remaining at 0.5 h ([1]; liver microsomes, read-out: Stability): 81%
3 | COC(=O)c1ccccc1 [METHYL BENZOATE] | Unstable | 
4 | GENTAMICIN |  | inhibition zone (IZ) (Pseudomonas aeruginosa): 22.3 mm
